This note sets out measurements from patent US12295938B2, “Composition for treating castration-resistant prostate cancer, comprising quassinoids” (SAMSUNG LIFE PUBLIC WELFARE FOUNDATION, priority 2019, dated 2025).

Assay type in all cases: cell-based
Assay [1] concerns AR-V7 transcriptional activity. Briefly: MMTV-LUC luciferase reporter assay in 22RV1 cells, DHT− (screening and IC50). To be noted: for activity at 0.1 µM / activity at 1 µM / activity at 10 µM / IC50: Homo sapiens; for activity at 0.1 µM / activity at 1 µM / activity at 10 µM / IC50 / MMTV-LUC activity (%) DHT−: 22RV1 cells; for activity at 0.1 µM / activity at 1 µM / activity at 10 µM / MMTV-LUC activity (%) DHT−: no DHT, control = 100; for IC50: AR-V7 transcriptional activity; for potency as inhibitor of AR/AR-V7 transcriptional activity compared with ailanthone: in both CRPC 22RV1 cells and androgen-dependent LNCaP cells. For orientation: Reporter assays use an easily measured gene product as a stand-in for the process of interest.
Procedure: (§1) A library of antimalarial agents was screened using a luciferase reporter assay to measure changes in AR/AR-V7 transcriptional activity.
(§2) Screening was made primarily with 10 μM of each drug.

The test system of a further assay is 22RV1 cells. As to the kind of experiment: MTT cell growth inhibition assay, 22RV1. To be noted: Homo sapiens, read-out: IC50 (22RV1 cell growth).
Assay [2] deals with AR transcriptional activity. As to the kind of experiment: MMTV-LUC luciferase reporter assay in 22RV1 cells, DHT+ (screening and IC50). To be noted: for activity at 0.1 µM / activity at 1 µM / activity at 10 µM / IC50: Homo sapiens; for activity at 0.1 µM / activity at 1 µM / activity at 10 µM / MMTV-LUC activity (%) DHT+: with DHT, control = 100; for IC50: AR transcriptional activity.
Procedure: as §1, §2

The subject of assay [3] is hormone-dependent AR transcriptional activity. Briefly: MMTV-LUC reporter assay in LNCaP cells, hormone-dependent AR transcriptional activity. To be noted: Homo sapiens, read-out: IC50 (nM) DHT+.

In general, IC50 refers to the point on the concentration scale where inhibition reaches its midpoint.

Where two headings read alike, the source gives them in different places.

Regarding `COC(=O)[C@@]12OC[C@]34[C@H]([C@@H](O)[C@@H]1O)[C@@]1(C)CC(=O)C(O)=C(C)[C@@H]1C[C@H]3OC(=O)[C@H](OC(=O)CC(C)C)[C@@H]24` [Bruceine A, bruceine A], the activity at 0.1 µM in assay [1] amounted to 19.5 ± 20.7%; in assay [2] it was 5.7 ± 1%. Moreover, the activity at 1 µM in assay [1] (1 uM) turned out to be 13.5 ± 1.7%; in assay [2] (1 uM), 3.6 ± 0.2%. For the same compound, the figures for the activity at 10 µM in assay [1] (10 uM) and in assay [2] (10 uM) were 11 ± 2.5% and 2.8 ± 0.2%, respectively. Further, the IC50 in assay [1] was determined as 14.3 nM; in the assay with 22RV1 cells (22Rv1, 72 h), 16.5 nM; in assay [2] it was 9.45 nM; in assay [3] (LNCaP), 15 nM. Also, the “potency as inhibitor of AR/AR-V7 transcriptional activity compared with ailanthone” value in assay [1] is “more potent inhibitors against AR/AR-V7 transcriptional activity”.
For `COC(=O)[C@@]12OC[C@]34[C@H]([C@@H](O)[C@@H]1O)[C@@]1(C)CC(=O)C(O)=C(C)[C@@H]1C[C@H]3OC(=O)[C@H](OC(=O)C=C(C)C)[C@@H]24` [Brusatol, brusatol], the activity at 0.1 µM in assay [1] stood at 18.9 ± 20.2%; in assay [2], 5.7 ± 0.6%. For the same compound, the activity at 1 µM in assay [1] (1 uM) came out at 14 ± 1.3%; in assay [2] (1 uM) it was 4 ± 0.5%. Moreover, the activity at 10 µM in assay [1] (10 uM) was found to be 10.3 ± 2.7%; in assay [2] (10 uM), 3.2 ± 0.2%. The IC50 in assay [1] was 14 nM; in the assay on 22RV1 cells (22RV1 cells, MTT, 72 hours), 15.1 nM; in assay [2] it was 6.23 nM; in assay [3] (LNCaP cells), 11.7 nM. In addition, in assay [1], the “potency as inhibitor of AR/AR-V7 transcriptional activity compared with ailanthone” value was “more potent inhibitors against AR/AR-V7 transcriptional activity”.
On to `CC1CCCC=CC(=O)c2c(O)cc(O)cc2CC(=O)O1` (centres unmarked) [10,11-Dehydrocurvularin], for which the figures for the “MMTV-LUC activity (%) DHT−” value in assay [1] (1 uM) and in assay [1] (10 uM) were 383.1 ± 24.6% and 16.3 ± 2.5%, respectively. Also, the “MMTV-LUC activity (%) DHT+” value in assay [2] (1 uM) is recorded as 206.9 ± 15.0%; in assay [2] (10 uM) it was 5.5 ± 0.6%.
As for `C[C@H]1[C@@H](O)O[C@@H]2O[C@@]3(C)CC[C@H]4[C@H](C)CC[C@@H]1[C@@]24OO3` [Dihydroartemisinin], the activity at 10 µM in assay [1] (10 uM) was 115 ± 10.1%; in assay [2] (10 uM) it was 138 ± 7%.
As to `C[C@H]1COC2=C1C(=O)C(=O)c1c2ccc2c1CCCC2(C)C` [Cryptotanshinone], the activity at 10 µM in assay [1] (10 uM) is 70.3 ± 3.2%; in assay [2] (10 uM) it was 62.7 ± 15.3%.
On to `COC(=O)[C@]12OC[C@]34[C@H]([C@@H](O)[C@@H]1O)[C@@]1(C)CC(=O)C(O[C@@H]5O[C@H](CO)[C@@H](O)[C@H](O)[C@H]5O)=C(C)[C@@H]1C[C@H]3OC(=O)[C@H](OC(C)=O)[C@@H]24` [Yadanzioside I], for which the “MMTV-LUC activity (%) DHT−” value in assay [1] (10 uM) amounted to 123.2 ± 10.4%. For the same compound, in assay [2] (10 uM), the “MMTV-LUC activity (%) DHT+” value came to 136.0 ± 7.1%.
Consider `CC1=CC(=O)c2c(O)cccc2C1=O` [Plumbagin], for which the results for the activity at 1 µM in assay [1] (1 uM) and in assay [2] (1 uM) were 215 ± 16.1% and 143 ± 27.5%, respectively. Besides, the figures for the activity at 10 µM in assay [1] (10 uM) and in assay [2] (10 uM) were 26 ± 7.6% and 7.1 ± 0.1%, respectively.
For the compound `C[C@H](CC(=O)C[C@@H](C)[C@H]1C[C@H](O)[C@@]2(C)C3=C(C(=O)C[C@]12C)[C@@]1(C)CCC(=O)C(C)(C)[C@@H]1C[C@@H]3O)C(=O)O` [Ganoderic acid A], the “MMTV-LUC activity (%) DHT−” value in assay [1] (10 uM) is listed as 140.0 ± 3.8%. In assay [2] (10 uM), the “MMTV-LUC activity (%) DHT+” value is recorded as 148.9 ± 2.8%.
